Assay results published in patent publication US20250099420A1, “SMALL MOLECULE MODULATORS OF GPR139 COMPLEX” (University of Florida Research Foundation, Incorporated, priority 2022, published 2025).

How the values were obtained:
GPR139 [1] = target: T1, GPR139 (Homo sapiens, UniProt Q6DWJ6); test: GPR139 Antagonist titration assay (calcium detection, HEK-GPR139 cells, vs EC80 of S-JNJ-63533054); conditions: for GPR139 Antagonist Activity Averaged Max % Response (±St. Dev.): activity relative to known control; for GPR139 Antagonist Activity Lipophilic Efficiency (logD): based on logD; for GPR139 Antagonist Activity Lipophilic Efficiency (logP): based on logP; for GPR139 Antagonist Activity Hill Slope: fitted dose-response curve
T1 sequence (Q6DWJ6 1-353): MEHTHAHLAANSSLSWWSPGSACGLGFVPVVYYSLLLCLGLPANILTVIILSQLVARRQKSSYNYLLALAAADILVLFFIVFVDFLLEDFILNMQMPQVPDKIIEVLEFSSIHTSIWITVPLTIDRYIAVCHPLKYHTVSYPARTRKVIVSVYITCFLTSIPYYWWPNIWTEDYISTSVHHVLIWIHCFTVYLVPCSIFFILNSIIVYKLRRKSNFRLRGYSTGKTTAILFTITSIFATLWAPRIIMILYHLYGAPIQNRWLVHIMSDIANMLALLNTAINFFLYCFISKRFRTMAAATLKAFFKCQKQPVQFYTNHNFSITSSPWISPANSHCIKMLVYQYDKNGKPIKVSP

parental HEK cells = test: HEK parental Antagonist Counterscreen Assay (non-transfected cells, acetylcholine control); assay type: cell-based; conditions: for EC50: Homo sapiens, HEK293, acetylcholine as control, scientific notation, molarity
Description: C. […] The HEK parental counterscreen utilized the same cells but not transfected with the plasmid. The agonist and antagonist modes were run the same way as the primary screen but acetylcholine was used in place of GPR139 agonist as the control compound.
The HEK parental counterscreen utilized the same cells but not transfected with the plasmid. The antagonist modes assays utilized the cells being plated in the 1536 well plate overnight in growth media prior to dye loading in PDL coated plates and acetylcholine was used in place of GPR139 agonist as the control compound.
The HEK parental counterscreen utilized the same cells but not transfected with the plasmid. Acetylcholine was used in place of GPR139 agonist as the control compound. The cells were plated overnight, similar to the HEK antagonist counterscreen protocol.
The HEK parental counterscreens utilized the same cells but not transfected with the plasmid. Acetylcholine was used in place of GPR139 agonist as the control compound. The cells were plated overnight, similar to the HEK antagonist counterscreen protocol.
For each test compound, percent activation was plotted against compound concentration. A four parameter equation describing a sigmoidal dose-response curve was then fitted with adjustable baseline using Assay Explorer software (Symyx Technologies Inc.).

GPR139 [2] = target: T1, GPR139; test: GPR139 Agonist titration / agonist counterscreen assay (calcium detection, HEK-GPR139 cells); assay type: cell-based; design: expressed in transfected cells; host or cells: HEK Aequorin cells, Maxcyte transient transfection; conditions: agonist counterscreen of the antagonists; for EC50: scientific notation, molarity, read-out: GRP139 Agonist activity EC50
Description: GPR activity was assessed using a calcium detection assay. […] Negative control samples were treated with DMSO. […] Intracellular calcium was measured using Calcium 5.

SMILES: N#CCC(=O)c1ccccc1Oc1ccc(F)cc1 [SR-01000308363]
- EC50 (GPR139 [1]): 5.9 µM
- GPR139 Antagonist Activity Ligand Efficiency (GPR139 [1]): 0.39
- GPR139 Antagonist Activity Averaged Max % Response (±St. Dev.) (GPR139 [1]): 70.81 ± 7.08%
- GPR139 Antagonist Activity Lipophilic Efficiency (logD) (GPR139 [1]): 2.11
- GPR139 Antagonist Activity Lipophilic Efficiency (logP) (GPR139 [1]): 2.11
- GPR139 Antagonist Activity Hill Slope (GPR139 [1]): 1.05
- HEK antagonist activity Averaged Max % Response (±St. Dev.) (parental HEK cells): 14.98 ± 11.31%
- EC50 (parental HEK cells): > 14.3 µM
- GRP139 Agonist activity Averaged Max % Response (±St. Dev.) (GPR139 [2]): 25.24 ± 7.47%
- EC50 (GPR139 [2]): > 14.3 µM

SMILES: COc1cc(C(=O)Nc2ccc(N3C(=O)c4ccc(Cl)cc4C3=O)c(C)c2)cc(OC)c1OC [SR-01000419723]
- EC50 (GPR139 [1]): 2.1 µM
- GPR139 Antagonist Activity Ligand Efficiency (GPR139 [1]): 0.23
- GPR139 Antagonist Activity Averaged Max % Response (±St. Dev.) (GPR139 [1]): 82.63 ± 2.69%
- GPR139 Antagonist Activity Lipophilic Efficiency (logD) (GPR139 [1]): 1.36
- GPR139 Antagonist Activity Lipophilic Efficiency (logP) (GPR139 [1]): 1.36
- GPR139 Antagonist Activity Hill Slope (GPR139 [1]): 0.63
- HEK antagonist activity Averaged Max % Response (±St. Dev.) (parental HEK cells): 25.06 ± 17.50%
- EC50 (parental HEK cells): > 10.6 µM
- GRP139 Agonist activity Averaged Max % Response (±St. Dev.) (GPR139 [2]): 3.98 ± 7.81%
- EC50 (GPR139 [2]): > 10.6 µM

SMILES: CC(=O)N1N=C(c2ccc(C)cc2)CC1c1ccccc1F (centres unmarked) [SR-01000429850]
- GPR139 Antagonist Activity Ligand Efficiency (GPR139 [1]): 0.31
- GPR139 Antagonist Activity Averaged Max % Response (±St. Dev.) (GPR139 [1]): 48.35 ± 1.75%
- GPR139 Antagonist Activity Lipophilic Efficiency (logD) (GPR139 [1]): 1.00
- GPR139 Antagonist Activity Lipophilic Efficiency (logP) (GPR139 [1]): 1.00
- HEK antagonist activity Averaged Max % Response (±St. Dev.) (parental HEK cells): −3.2E+0 ± 5.20 ^ %
- EC50 (parental HEK cells): > 15.5 µM
- GRP139 Agonist activity Averaged Max % Response (±St. Dev.) (GPR139 [2]): 4.88 ± 6.79%

SMILES: O=C(Nn1c(-c2cccc(Cl)c2)nc2ccccc2c1=O)c1cc(Br)ccc1Cl [SR-01000433654]
- EC50 (GPR139 [1]): 7 µM
- GPR139 Antagonist Activity Ligand Efficiency (GPR139 [1]): 0.25
- GPR139 Antagonist Activity Averaged Max % Response (±St. Dev.) (GPR139 [1]): 82.91 ± 7.41%
- GPR139 Antagonist Activity Lipophilic Efficiency (logD) (GPR139 [1]): −712.7E−3
- GPR139 Antagonist Activity Lipophilic Efficiency (logP) (GPR139 [1]): −712.7E−3
- GPR139 Antagonist Activity Hill Slope (GPR139 [1]): 0.97
- HEK antagonist activity Averaged Max % Response (±St. Dev.) (parental HEK cells): 23.11 ± 4.71%
- EC50 (parental HEK cells): > 10.9 µM
- GRP139 Agonist activity Averaged Max % Response (±St. Dev.) (GPR139 [2]): 7.71 ± 3.46%
- EC50 (GPR139 [2]): > 10.9 µM

SMILES: O=c1c(-c2ccc(Cl)cc2)c(C(F)(F)F)oc2cc(O)ccc12 [SR-01000438114]
- EC50 (GPR139 [1]): 0.98 µM
- GPR139 Antagonist Activity Ligand Efficiency (GPR139 [1]): 0.37
- GPR139 Antagonist Activity Averaged Max % Response (±St. Dev.) (GPR139 [1]): 82.02 ± 2.67%
- GPR139 Antagonist Activity Lipophilic Efficiency (logD) (GPR139 [1]): 2.55
- GPR139 Antagonist Activity Lipophilic Efficiency (logP) (GPR139 [1]): 1.57
- GPR139 Antagonist Activity Hill Slope (GPR139 [1]): 1.59
- HEK antagonist activity Averaged Max % Response (±St. Dev.) (parental HEK cells): 104.21 ± 5.67%
- EC50 (parental HEK cells): 4.2 µM
- GRP139 Agonist activity Averaged Max % Response (±St. Dev.) (GPR139 [2]): 68.19 ± 17.63%
- GRP139 Agonist activity Hill Slope (GPR139 [2]): 1.01
- EC50 (GPR139 [2]): 9.1 µM

SMILES: Cc1ccc(Oc2ccc(OCC(=O)N3C(C)CCCC3C)cc2)cc1 (centres unmarked) [SR-01000445554]
- EC50 (GPR139 [1]): > 4.5 µM
- GPR139 Antagonist Activity Ligand Efficiency (GPR139 [1]): 0.29
- GPR139 Antagonist Activity Averaged Max % Response (±St. Dev.) (GPR139 [1]): 80.54 ± 5.09%
- GPR139 Antagonist Activity Lipophilic Efficiency (logD) (GPR139 [1]): 0.71
- GPR139 Antagonist Activity Lipophilic Efficiency (logP) (GPR139 [1]): 0.71
- HEK antagonist activity Averaged Max % Response (±St. Dev.) (parental HEK cells): 26.51 ± 5.44%
- EC50 (parental HEK cells): > 13.6 µM
- GRP139 Agonist activity Averaged Max % Response (±St. Dev.) (GPR139 [2]): 28.29 ± 7.43%
- EC50 (GPR139 [2]): > 13.6 µM

SMILES: CCCc1sc(N2CCN(C(=O)c3ccccc3)CC2)nc1-c1ccccc1 [SR-01000451510]
- EC50 (GPR139 [1]): 8.8 µM
- GPR139 Antagonist Activity Ligand Efficiency (GPR139 [1]): 0.25
- GPR139 Antagonist Activity Averaged Max % Response (±St. Dev.) (GPR139 [1]): 57.55 ± 8.35%
- GPR139 Antagonist Activity Lipophilic Efficiency (logD) (GPR139 [1]): −866.9E−3
- GPR139 Antagonist Activity Lipophilic Efficiency (logP) (GPR139 [1]): −866.9E−3
- GPR139 Antagonist Activity Hill Slope (GPR139 [1]): 1.89
- HEK antagonist activity Averaged Max % Response (±St. Dev.) (parental HEK cells): 16.06 ± 4.81%
- EC50 (parental HEK cells): > 11.7 µM
- GRP139 Agonist activity Averaged Max % Response (±St. Dev.) (GPR139 [2]): −9.5E+0 ± 9.17 ^ %
- EC50 (GPR139 [2]): > 11.7 µM

SMILES: O=C(NCCC1CCCCC1)N1c2ccccc2Sc2ccccc21 [SR-01000452455]
- EC50 (GPR139 [1]): 3.6 µM
- GPR139 Antagonist Activity Ligand Efficiency (GPR139 [1]): 0.32
- GPR139 Antagonist Activity Averaged Max % Response (±St. Dev.) (GPR139 [1]): 87.35 ± 5.76%
- GPR139 Antagonist Activity Lipophilic Efficiency (logD) (GPR139 [1]): 0.49
- GPR139 Antagonist Activity Lipophilic Efficiency (logP) (GPR139 [1]): 0.49
- GPR139 Antagonist Activity Hill Slope (GPR139 [1]): 1.28
- HEK antagonist activity Averaged Max % Response (±St. Dev.) (parental HEK cells): 0.92 ± 5.75%
- EC50 (parental HEK cells): > 12.5 µM
- GRP139 Agonist activity Averaged Max % Response (±St. Dev.) (GPR139 [2]): 15.11 ± 5.37%
- EC50 (GPR139 [2]): > 12.5 µM
